Source: article PMC11206507, “Unraveling the Impact of Six Pentacyclic Triterpenes Regulating Metabolic Pathways on Lung Carcinoma Cells” (Pharmaceuticals, 2024)
Read-outs that look alike come from different tables or passages of the source.

Tests used:
NSCLC A549 cells [1] = test: MTS/PMS cell viability, A549; assay type: cell-based, human; as to TI > 1: key: '✔' means induction; '-' means non-induction of any of the tested processes
Protocol: A similar procedure was performed to determine the IC50 of the triterpenes in a normal lung fibroblast cell line (MRC5). In brief, the A549 and MRC5 cells were seeded into 96-well plates at a density of 1 × 10^5 cells/mL in supplemented DMEM medium. […] Then, 10 uL of the MTS reagent from the CellTiter 96® Aqueous Non-Radioactive Cell Proliferation Assay (Promega G5421) was added to each well. Then, we incubated the plates at 37 °C and in a 5% CO2 atmosphere for 1 h. After incubation, the absorbance was measured at 492 nm (n = 8) in a microplate reader spectrophotometer (Thermoscientific Multiskan FC). The cell viability was calculated as follows:% Viability = (sample absorbance − sample media absorbance)/(untreated cells’ absorbance − untreated cells’ media absorbance) × 100
(§1) The cell viability data were presented by plotting the values with an average of eight measurements for each treatment (mean ± SD) in at least three independent experiments. The IC50 values were calculated with the GraphPad Prism 9 software (Prism 9; GraphPad by Dotmatics, San Diego, CA, USA) using the dose–response curve.

MAPK/PI3K = MAPK/PI3K protein expression (dual pathway activation kit, flow cytometry); assay type: cell-based, human; conditions: for MAPK/PI3K expression (in words): A549, IC25, 24 h, vs untreated cells; for MAPK/PI3K inhibition: summary, NSCLC A549 cells; as to MAPK/PI3K inhibition: key: '✔' means induction; '-' means non-induction of any of the tested processes
Protocol: (§2) We used flow cytometry to analyze several cellular mechanistic pathways in A549 cells after incubation with the triterpenes. In general, the cells were seeded in a 6-well plate at a density of 1 × 10^6 cells/mL and incubated for 24 h in supplemented DMEM. After 24 h, the A549 cells were treated with the triterpenes, following each manufacturer’s protocol. All of the following experiments were performed in a Muse® Cell Analyzer (EMD Millipore Corporation, Temecula, CA). The instrument was calibrated before each assay using the Muse® System Check Kit (Luminex MCH100101, Luminex Corporation). Each assay was run at least in two independent experiments. For each experiment, all samples were analyzed in triplicate in the instrument and the capillary line was washed after each sample run to avoid artifacts. In addition, to address the issue of cell doublets, we used the Muse® Cell Dispersal Reagent (Luminex Corporation) in all experiments. The concentration of the triterpenes in each assay was selected depending on the cellular concentration necessary to generate the gain signal in the instrument. This means that we attempted to select concentrations avoiding excessive cytotoxicity to accurately determine the respective signal from each assay.
The Muse® P13K/MAPK Dual Pathway Activation Kit (Luminex MCH200108, Luminex Corporation) was used to determine MAPK/PI3K expression. After the incubation treatment with the triterpenes (IC25) for 24 h, the A549 cells were scraped, centrifuged, and washed once with 1× PBS. Next, the fixation buffer was incubated for 10 min and then the permeabilization buffer for another 10 min. Both incubations were performed on ice. Later, the antibody cocktail containing anti-phospho-Akt and anti-phospho-ERK1/2 was incubated for 30 min. Afterward, the cell pellet was washed and suspended in fresh assay buffer for measurement.

NSCLC A549 cells [2] = tested on: NSCLC A549 cells; parameters: method as in PMID 31338398; conditions: cited from earlier work; for IC50: 24 h, MTS/PMS, already obtained by the authors; for Cytotoxicity in A549 cells at the highest concentration: 100 μM
LC3-II = test: Autophagy induction assay (LC3 antibody, flow cytometry); assay type: cell-based, human; conditions: for Autophagic response (in words): A549, IC25, 24 h, vs controls (untreated ratio 0.8, starving ratio 1)
Protocol: as §2
The Muse® Autophagy LC3 Antibody-Based Kit (Luminex MCH200109, Luminex Corporation) was used to determine autophagy activation by monitoring lipidated LC3-II. After the A549 cells were treated with the triterpenes (IC25) for 24 h, autophagy reagent A was added for 4 h to prevent the lysosomal degradation of LC3-II. Then, the cells were detached and centrifuged. The pellet was suspended and incubated for 30 min in the autophagy reagent B containing anti-LC3-II mouse monoclonal antibody. Finally, the cell pellet was washed and suspended in fresh assay buffer for measurement. The autophagy response was calculated using the following formula:
Autophagy ratio = mean autophagy value of treated or untreated cells/mean autophagy value of starving cells.
The starving cells were labeled ‘No supp’ as non-supplemented cells. These served as the positive signal for autophagy and were designated a ratio of 1 since they were compared to themselves. A ratio ≥1 indicates the activation of the autophagic response.

[3] = MTS/PMS cell viability, MRC5; assay type: cell-based; conditions: human, MRC5 normal lung fibroblast cells
Protocol: The 50% inhibitory concentration (IC50) of some of these triterpenes in A549 NSCLC cells were previously determined by us. A similar procedure was performed to determine the IC50 of the triterpenes in a normal lung fibroblast cell line (MRC5). In brief, the A549 and MRC5 cells were seeded into 96-well plates at a density of 1 × 10^5 cells/mL in supplemented DMEM medium. The cells were treated with specific concentrations (A549: 5, 10, 25, 50, 75, 100, 125,150, 175, 200 μM; MRC5: 5, 10, 25, 50, 75, 100 μM) of the triterpenes and incubated for 24 h. Then, 10 uL of the MTS reagent from the CellTiter 96® Aqueous Non-Radioactive Cell Proliferation Assay (Promega G5421) was added to each well. Then, we incubated the plates at 37 °C and in a 5% CO2 atmosphere for 1 h. After incubation, the absorbance was measured at 492 nm (n = 8) in a microplate reader spectrophotometer (Thermoscientific Multiskan FC). The cell viability was calculated as follows:% Viability = (sample absorbance − sample media absorbance)/(untreated cells’ absorbance − untreated cells’ media absorbance) × 100
as §1, with “curve. The data were normalized by the non-linear fit of the log (drug inhibition) vs. normalized response variable slope to obtain the best fit IC50 and R-squared values.” for “curve.”

[4] = tested on: DNA damage machinery in A549 cells; test: DNA damage assay (anti-pH2AX / anti-pATM, flow cytometry); assay type: cell-based, human; conditions: A549, IC50, 24 h, vs untreated cells
Protocol: as §2
Then, the A549 cells were scraped and centrifuged. The pellet was suspended in the assay buffer from the Luminex MCH200107 kit (Luminex Corporation). […]

A549 cells [5] = test: Total ROS production assay (DCF); assay type: cell-based, human; conditions: A549, IC25 (CisPt 25 μM), 24 h
Protocol: The production of total ROS was determined using the 2′,7′-dichlorodihydrofluorescein diacetate (DCF) fluorescent dye. A549 cells were seeded in a concentration of 1 × 10^5 cells/mL into black 96-well plates with a clear bottom. After 24 h, the cells were incubated with the triterpenes (IC25) and controls for 24 h. Then, 50 μL of DCF (10 μM) was added to each well and they were incubated for 1 h at room temperature. Then, the fluorescence of each well was measured (Ex/Em = 485/530 nm) in the Tecan® M200 plate reader.
This experiment was performed in triplicate. All data were expressed by plotting the values as an average of three measurements for each treatment condition as the mean ± SD and analyzed with the software GraphPad Prism 9. Statistical analysis was performed using one-way analysis of variance (ANOVA) to compare the mean value of each treated type of cells versus the control (untreated cells). The statistical significance defined by the software for p values was **** < 0.0001, *** from 0.001 to 0.0001, ** from 0.001 to 0.01, * from 0.01 to 0.05, and non-significant (ns) ≥ 0.05.

PDL1 gene = test: RT-qPCR gene expression of PDL1; assay type: cell-based, human; conditions: A549, IC25 (CisPt 25 μM), 24 h
Protocol: (§3) A549 cells were seeded into 6-well plates at a density of 1 × 10^6 cells/mL in supplemented DMEM. The cells were incubated with the triterpenes (IC25) for 24 h. Total RNA was extracted from the cells using the TRIzol reagent (Invitrogen Corporation, Carlsbad, CA, USA) according to the manufacturer’s instructions. The purity and concentration of RNA were assessed using a NanoDrop spectrophotometer (Thermo Fisher Scientific). cDNA was synthesized using the High-Capacity cDNA Reverse Transcription Kit (Applied Biosystems) according to the manufacturer’s instructions.
(§4) RT-qPCR was performed on a StepOnePlus® Real-Time PCR System (Thermo Fisher Scientific) using TaqMan Gene Expression Assays (Applied Biosystems) for PDL1 (CD274; Assay ID: Hs01125297_m1), ribonucleotide reductase (RR) M1 (Assay ID: Hs01040697_m1), and STAT3 (Assay ID: Hs01047586_g1). Each reaction consisted of 10 ng of cDNA, TaqMan Gene Expression Master Mix (Applied Biosystems), and TaqMan probes. The PCR cycling conditions were as follows: 95 °C for 10 min, followed by 40 cycles of 95 °C for 15 s and 60 °C for 60 s. The relative gene expression levels were calculated using the ΔΔCt method. GAPDH (Assay ID: Hs02758991_g1) was used as the endogenous control for normalization.
(§5) All RT-qPCR experiments were performed at least in triplicate. All data were expressed by plotting values with an average of four measurements for each treatment condition as the mean ± SD and analyzed with the software GraphPad Prism 9. Statistical analysis was performed using one-way analysis of variance (ANOVA) to compare the mean value of each treated type of cells versus the control (untreated cells). The statistical significance defined by the software for p values was **** < 0.0001, *** from 0.001 to 0.0001, ** from 0.001 to 0.01, * from 0.01 to 0.05, and non-significant (ns) ≥ 0.05.

STAT3 gene = test: RT-qPCR gene expression of STAT3; assay type: cell-based, human
Protocol: as §3, §4, §5

RRM1 gene = test: RT-qPCR gene expression of ribonucleotide reductase M1; assay type: cell-based, human
Protocol: as §3
as §4, with “GAPDH (Assay ID: Hs02758991_g1) was used as the endogenous control for normalization.” left out
All RT-qPCR experiments were performed at least in triplicate. All data were expressed by plotting values with an average of four measurements for each treatment condition as the mean ± SD and analyzed with the software GraphPad Prism 9. […]

A549 cells [6] = test: Mitochondrial ROS production assay (DHE, flow cytometry); assay type: cell-based, human; conditions: A549, IC25, 24 h; group average
Protocol: as §2
The production of reactive oxygen species (ROS) by mitochondria was determined using the Oxidative Stress Kit (Luminex MCH100111, Luminex Corporation). After the A549 cells were treated with the triterpenes (IC25) for 24 h, the cells were scraped and centrifuged. For ROS, the cell pellet was incubated with dihydroethidium (DHE) dye for 1 h at 37 °C.

Structure (SMILES)	MAPK/PI3K expression (in words) (MAPK/PI3K)	MAPK/PI3K inhibition (MAPK/PI3K)	IC50 (NSCLC A549 cells [2]) [µM]	Autophagic response (in words) (LC3-II)	IC50 at 24 h [3] [µM]	Cytotoxicity in A549 cells at the highest concentration (NSCLC A549 cells [2])	further results
C[C@H]1[C@H](C)CC[C@]2(C(=O)O)CC[C@]3(C)C(=CC[C@@H]4[C@@]5(C)C[C@@H](O)[C@H](O)[C@@](C)(CO)[C@@H]5CC[C@]43C)[C@H]12 [AsA, asiatic acid]	did not affect the expression of MAPK/PI3K	-	59 ± 6	induced an autophagic response similar to that of CisPt	38 ± 2		TI (NSCLC A549 cells [1]; TI = MRC5 IC50/A549 IC50, >1 means higher selectivity): 0.64; TI > 1 (NSCLC A549 cells [1]; summary, MRC5 vs A549): -; Autophagy inhibition (LC3-II; summary, NSCLC A549 cells): -; Activation of the DNA damage machinery (in words) [4]: caused the activation of the DNA damage machinery
N.N.[Cl][Pt][Cl] [CisPt, cis-diamminedichloroplatinum (II), reference compound]							Total ROS production (in words) (A549 cells [5]): not statistically significant; PDL1 gene expression (in words) (PDL1 gene): clearly upregulated PDL1
CC1(C)CC[C@]2(C(=O)O)CC[C@]3(C)C(=CC[C@@H]4[C@@]5(C)CC[C@H](O)C(C)(C)[C@@H]5CC[C@]43C)[C@@H]2C1 [OleA, oleanolic acid]	did not affect the expression of MAPK/PI3K	-	43 ± 5	inhibit the LC3-II activity	86 ± 2		TI (NSCLC A549 cells [1]): 2; STAT3 gene expression (in words) (STAT3 gene; A549, IC25, 24 h): did not inhibit; STAT3 downregulation (STAT3 gene; summary, NSCLC A549 cells): -; RRM1 gene expression (in words) (RRM1 gene; A549, IC25, 24 h, vs untreated cells): did not downregulate RR; RRM1 downregulation (RRM1 gene; summary, NSCLC A549 cells): -; Amount of mROS, on average of the three named triterpenes, compared to the untreated cells (A549 cells [6]): 26.2%
CC(C)CCC[C@@H](C)[C@H]1CC[C@H]2[C@@H]3CC=C4C[C@@H](O)CC[C@]4(C)[C@H]3CC[C@]12C [cholesterol, reference compound]						did not kill A549 cells	
CC[C@H](CC[C@@H](C)[C@H]1CC[C@H]2[C@@H]3CC=C4C[C@@H](O)CC[C@]4(C)[C@H]3CC[C@]12C)C(C)C [β-sitosterol, reference compound]						did not kill A549 cells	
